The source of these data is patent US20050192314A1, “Urea derivatives as C-kit modulators” (Ambit Biosciences Corporation, priority 2003, published 2005).

The target in the first experiment is T1, KIT(DKIN) (Homo sapiens, UniProt P10721).
T1 construct: KIT(DKIN); made in house
T1 sequence (P10721 589-937 limits assumed): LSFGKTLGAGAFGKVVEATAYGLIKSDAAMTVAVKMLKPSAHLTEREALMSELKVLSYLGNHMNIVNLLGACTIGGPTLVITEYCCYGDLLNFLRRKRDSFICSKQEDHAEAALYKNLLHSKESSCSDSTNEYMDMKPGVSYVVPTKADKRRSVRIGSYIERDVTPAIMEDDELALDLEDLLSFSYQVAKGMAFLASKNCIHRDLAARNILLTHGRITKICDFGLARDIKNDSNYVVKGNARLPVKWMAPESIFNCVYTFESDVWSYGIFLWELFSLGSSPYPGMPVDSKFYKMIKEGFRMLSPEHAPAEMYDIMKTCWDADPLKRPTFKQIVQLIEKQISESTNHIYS
The experiment is described as follows: Binding constant (Kd) measurement, phage-displayed kinase competition binding assay: KIT(DKIN). An excerpt: (§1) The term “ND” represents non-determined values.
Molecule `COc1ccc(-c2cc(C(=O)Nc3ccc(NC(=O)Nc4cc(C(C)(C)C)on4)cc3)c(C)o2)cc1` [Compound N118] gave a Kd of 1000 to 10000 nM.
In turn, `CC(C)(C)c1cc(NC(=O)Nc2ccc(CCc3ccccc3)cc2)no1` [Compound A15] showed a Kd of 100 to 1000 nM.
Consider `CC(C)(C)c1cc(NC(=O)Nc2ccc(NC(=O)c3cnc4ccccc4c3)cc2)no1` [Compound N108], for which the dissociation constant Kd was in the range of 100 to 1000 nM.
Consider `O=C(Nc1ccccc1)Nc1ccc(-n2cnc(Cl)c2Cl)cc1` [Compound Z65], for which the Kd fell in the range of 1000 to 10000 nM.
In the case of `CC(C)(C)c1cc(NC(=O)Nc2ccc(C(=O)NCc3ccc4c(c3)OCO4)cc2)no1` [Compound N97], the Kd lay in the range of 100 to 1000 nM.
On to `CC(C)(C)c1cc(NC(=O)Nc2ccc(NC(=O)c3ccc4cccnc4n3)cc2)no1` [Compound N144], for which the Kd lay within 100 to 1000 nM.
On the same count and under the same terms, the same measure for `CC(C)(C)c1cc(NC(=O)Nc2ccc(C(=O)Nc3ccccc3)cc2)no1` [Compound N90]: 100 to 1000 nM; for `CC(C)(C)c1cc(NC(=O)Nc2ccc(NC(=O)c3cccc(O)n3)cc2)no1` [Compound N131]: below 100 nM; for `CC(C)(C)c1cc(NC(=O)Nc2ccc(OCC3CCC3)cc2)no1` [Compound G39]: below 100 nM.
`CC(C)(C)c1cc(NC(=O)Nc2ccc(NC(=O)Cc3ccccc3)cc2)no1` [Compound N35] had a dissociation constant (Kd) of 100 to 1000 nM.
Same read-out and setting: next, `CC(C)(C)c1cc(NC(=O)Nc2ccc(NC(=O)C3CNCCN3)cc2)no1` (stereo not drawn) [Compound N152]: above 10000 nM; `CC(C)(C)c1cc(NC(=O)Nc2ccc(OCc3ccccc3Cl)cc2)no1` [Compound G10]: below 100 nM; `Cn1nc(C(C)(C)C)cc1NC(=O)Nc1cccc([N+](=O)[O-])c1` [Compound D21]: above 10000 nM.
In turn, `O=C(Nc1ccno1)Nc1ccc(Cl)cc1Cl` [Compound Z12] returned a Kd of 1000 to 10000 nM.
Same read-out and setting: the same measure for `CC(C)(C)c1cc(NC(=O)Nc2ccccc2)no1` [Compound A2]: 100 to 1000 nM.
Still for that read-out and setting: next, `CC(C)(C)c1cc(NC(=O)Nc2ccc(OCCc3ccccn3)cc2)no1` [Compound G27]: 100 to 1000 nM; `CC(C)(C)c1cc(NC(=O)Nc2ccc(C(=O)Nc3ccc(F)cc3F)cc2)no1` [Compound N153]: 100 to 1000 nM; `Cc1ccc(C(=O)Nc2ccc(NC(=O)Nc3cc(C(C)(C)C)on3)cc2)cn1` [Compound N142]: 100 to 1000 nM.
Same read-out and setting: next, `CC(C)(C)c1cc(NC(=O)Nc2ccc(C(=O)Nc3ccc(Cl)cc3)cc2)no1` [Compound N156]: 1000 to 10000 nM.
In turn, `CC(C)(C)c1cc(NC(=O)Nc2ccc(-c3nc(-c4cccc5ccccc45)no3)cc2)no1` [Compound P5] returned a dissociation constant Kd of 1000 to 10000 nM.
As to `Cc1ccc(-n2nc(C(C)(C)C)cc2NC(=O)Nc2ccc(Cl)cc2)cc1` [Compound H14], the Kd was in the range of 1000 to 10000 nM.
The same measure, in the same setting: next, `CC(C)(C)c1cc(NC(=O)Nc2ccc(NC(=O)c3cccc4c3OCCO4)cc2)no1` [Compound N111]: 1000 to 10000 nM.
The molecule `Cc1nccn1CCOc1ccc(NC(=O)Nc2cc(C(C)(C)C)on2)cc1` [Compound G51] displayed a Kd of 100 to 1000 nM.
The molecule `Cn1cc(C(=O)Nc2ccc(NC(=O)Nc3cc(C(C)(C)C)on3)cc2)c(C(F)(F)F)n1` [Compound N20] registered a Kd of 100 to 1000 nM.
Same read-out and setting: the same measure for `O=C(Nc1ccc(Cl)cc1)Nc1ccc(-n2nc(Br)c(Br)c2Br)cc1` [Compound Z49]: 100 to 1000 nM; for `CNC(=O)c1ccc(NC(=O)Nc2cc(C(C)(C)C)on2)cc1` [Compound N85]: 100 to 1000 nM.
The same measure, in the same setting: the same measure for `Cc1nn(C)c(Cl)c1C(=O)Nc1ccc(NC(=O)Nc2cc(C(C)(C)C)on2)cc1` [Compound N116]: 100 to 1000 nM.
On to `CC(C)(C)c1cc(NC(=O)Nc2ccc(OCc3ccccc3)cc2)no1` [Compound G31], for which the Kd was below 100 nM.
The same measure, in the same setting: the same measure for `CC(C)(C)c1cc(NC(=O)Nc2ccc(NC(=O)c3cnnc4ccccc34)cc2)no1` [Compound N147]: 100 to 1000 nM.
The same measure, in the same setting: the same measure for `CC(C)(C)c1cc(NC(=O)Nc2ccc(OCc3c(F)cccc3F)cc2)no1` [Compound G21]: below 100 nM; for `CC1CN(CCOc2ccc(NC(=O)Nc3cc(C(C)(C)C)on3)cc2)CC(C)O1` (stereo not drawn) [Compound G42]: 1000 to 10000 nM.
Molecule `CC(C)(CO)c1cc(NC(=O)Nc2ccc(OCc3ccccc3)cc2)on1` [Compound G2] gave a Kd of 100 to 1000 nM.
The same measure, in the same setting: next, `CSc1ccc(NC(=O)Nc2cc(C(C)(C)C)no2)cc1` [Compound A39]: 100 to 1000 nM.
Same read-out and setting: the same measure for `COc1ccc(NC(=O)Nc2cc(C(C)(C)C)on2)cc1` [Compound A29]: 1000 to 10000 nM.
`CC(C)(C)c1cc(NC(=O)Nc2ccc(OCCN3CCNCC3)cc2)no1` [Compound G52]: the Kd is above 10000 nM.
In the case of `Cc1ccc(NC(=O)c2ccc(NC(=O)Nc3cc(C(C)(C)C)on3)cc2)cc1` [Compound N84], the Kd was below 100 nM.
Same read-out and setting: the same measure for `Cc1cc(C)n(C(=O)Nc2ccc(Cl)cc2)n1` [Compound Z52]: above 10000 nM; for `CC(C)(C)c1cc(NC(=O)Nc2ccc(NC(=O)c3cnc(Cl)c(Cl)c3)cc2)no1` [Compound N123]: 1000 to 10000 nM.
For the molecule `CC(C)(C)c1cc(NC(=O)Nc2ccc(CCc3ccc(N)cc3)cc2)no1` [Compound A3], the Kd was below 100 nM.
On the same count and under the same terms, next, `CC(C)(C)c1cc(NC(=O)Nc2ccc(OCc3ccc(Cl)cc3)cc2)no1` [Compound G34]: below 100 nM.
In the case of `CC(C)(C)c1cc(NC(=O)Nc2ccc(OCCN3CCC(O)CC3)cc2)no1` [Compound G48], the Kd is above 10000 nM.
Same read-out and setting: next, `COc1cccc(-c2ccc(C(=O)Nc3ccc(NC(=O)Nc4cc(C(C)(C)C)on4)cc3)o2)c1` [Compound N105]: 100 to 1000 nM.

For the next experiment, the target named is T2, KIT(JMminus) (Homo sapiens, UniProt P10721).
T2 construct: KIT(JMminus); made in house
T2 sequence (P10721 589-937 limits assumed): as above
The experiment is described as follows: Binding constant (Kd) measurement, phage-displayed kinase competition binding assay: KIT(JMminus).
Excerpt: as §1
Molecule `CCOC(=O)c1cccc(C(=O)Nc2ccc(NC(=O)Nc3cc(C(C)(C)C)on3)cc2)n1` [Compound N164] registered a dissociation constant Kd below 100 nM.
`COc1ccc(C(=O)c2c[nH]c(C(=O)Nc3ccc(NC(=O)Nc4cc(C(C)(C)C)on4)cc3)c2)cc1` [Compound N177] returned a Kd of 100 to 1000 nM.
On the same count and under the same terms, next, `CC(C)(C)c1cc(NC(=O)Nc2ccc(NC(=O)c3cccnc3C(=O)O)cc2)no1` [Compound N165]: below 100 nM; `CC(C)(C)c1cc(NC(=O)Nc2ccc(NC(=O)c3cc(O)c4cccc(O)c4n3)cc2)no1` [Compound N176]: 1000 to 10000 nM; `CC(C)(C)c1cc(NC(=O)Nc2ccc(NC(=O)C3=Cc4cc(F)cc(S(C)(=O)=O)c4C3)cc2)no1` [Compound N62]: below 100 nM.
On the same count and under the same terms, the same measure for `CC(C)(C)c1cc(NC(=O)Nc2ccc(NC(=O)c3cc(N4CCOCC4)nc(N4CCOCC4)c3)cc2)no1` [Compound N54]: below 100 nM; for `COc1cc(OC)nc(Sc2ccccc2C(=O)Nc2ccc(NC(=O)Nc3cc(C(C)(C)C)on3)cc2)n1` [Compound N47]: below 100 nM; for `Cc1cc(NC(=O)c2cn3nc(Cl)ccc3n2)ccc1NC(=O)Nc1cc(C(C)(C)C)on1` [Compound N169]: below 100 nM.
The same measure, in the same setting: next, `CC(C)(C)c1cc(NC(=O)Nc2ccc(NC(=O)c3cc4cccnc4nc3C(F)(F)F)cc2)no1` [Compound N61]: 100 to 1000 nM.
The molecule `CC(C)(C)c1cc(NC(=O)Nc2ccc(Nc3cc(N)nc(N)n3)cc2)no1` [Compound O7] displayed a Kd below 100 nM.
With `Cc1nc(-c2ccccc2)sc1C(=O)Nc1ccc(NC(=O)Nc2cc(C(C)(C)C)on2)cc1` [Compound N181], the Kd is below 100 nM.
Same read-out and setting: next, `CC(C)(C)c1cc(NC(=O)Nc2ccc(NC(=O)c3csc(Cc4cccc(C(F)(F)F)c4)n3)cc2)no1` [Compound N180]: below 100 nM.
